Literature values as cited in patent publication US20200289439A1, “Process of Manufacturing a Stable, Ready To Use Infusion Bag For An Oxidation Sensitive Formulation” (InnoPharma Licensing, LLC, priority 2013, published 2020).

Key:
[1] = six adult volunteers
[2] = intravenous; therapeutic dosing, up to 4,000 mg daily

mean intravenous Cmax compared to oral route ([1]; intravenous vs oral): nearly two
mean intravenous Cmax compared to rectal route ([1]; intravenous vs rectal): four fold higher
Compound: CC(=O)Nc1ccc(O)cc1 [Acetaminophen, N-(4-hydroxyphenyl)acetamide]
hepatotoxicity [2]: rarely associated with hepatotoxicity
